# Assay results reported in ChEMBL document CHEMBL3085760, “Novel polyamine analogues: from substrates towards potential inhibitors of monoamine oxidases” (Eur J Med Chem, 2013).
# Assays:
# [1] = target: T1, Amine oxidase [flavin-containing] B (Homo sapiens, UniProt P27338); assay: Activity at recombinant human MAO-B expressed in baculovirus infected BT1 cells assessed as hydrogen peroxide generation rate preincubated for 30 mins by Amplex Red assay relative to control
# T1 sequence (P27338 whole entry): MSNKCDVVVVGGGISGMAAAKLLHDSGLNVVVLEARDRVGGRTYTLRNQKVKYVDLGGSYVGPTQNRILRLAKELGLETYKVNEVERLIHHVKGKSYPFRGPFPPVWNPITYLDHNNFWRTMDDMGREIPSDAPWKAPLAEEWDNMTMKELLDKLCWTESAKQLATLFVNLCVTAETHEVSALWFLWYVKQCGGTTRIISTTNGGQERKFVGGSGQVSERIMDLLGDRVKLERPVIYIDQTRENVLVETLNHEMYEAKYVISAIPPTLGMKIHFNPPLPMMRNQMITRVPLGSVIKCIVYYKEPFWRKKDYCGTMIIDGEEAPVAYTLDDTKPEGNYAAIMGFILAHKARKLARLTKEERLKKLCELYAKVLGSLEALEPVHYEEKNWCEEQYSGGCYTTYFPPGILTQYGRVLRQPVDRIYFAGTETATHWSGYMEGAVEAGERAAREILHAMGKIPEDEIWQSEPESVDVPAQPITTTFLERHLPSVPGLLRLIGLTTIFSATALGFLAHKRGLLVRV
# [2] = target: T1, Amine oxidase [flavin-containing] B; assay: Ratio of relative Vmax to Km for recombinant human MAO-B expressed in baculovirus infected BT1 cells assessed as hydrogen peroxide generation rate preincubated for 30 mins by Amplex Red assay; settings: 0.5 h
# [3] = target: T2, Amine oxidase [flavin-containing] A (Homo sapiens, UniProt P21397); assay: Ratio of relative Vmax to Km for recombinant human MAO-A expressed in baculovirus infected BT1 cells assessed as hydrogen peroxide generation rate preincubated for 30 mins by Amplex Red assay; settings: 0.5 h
# T2 sequence (P21397 whole entry): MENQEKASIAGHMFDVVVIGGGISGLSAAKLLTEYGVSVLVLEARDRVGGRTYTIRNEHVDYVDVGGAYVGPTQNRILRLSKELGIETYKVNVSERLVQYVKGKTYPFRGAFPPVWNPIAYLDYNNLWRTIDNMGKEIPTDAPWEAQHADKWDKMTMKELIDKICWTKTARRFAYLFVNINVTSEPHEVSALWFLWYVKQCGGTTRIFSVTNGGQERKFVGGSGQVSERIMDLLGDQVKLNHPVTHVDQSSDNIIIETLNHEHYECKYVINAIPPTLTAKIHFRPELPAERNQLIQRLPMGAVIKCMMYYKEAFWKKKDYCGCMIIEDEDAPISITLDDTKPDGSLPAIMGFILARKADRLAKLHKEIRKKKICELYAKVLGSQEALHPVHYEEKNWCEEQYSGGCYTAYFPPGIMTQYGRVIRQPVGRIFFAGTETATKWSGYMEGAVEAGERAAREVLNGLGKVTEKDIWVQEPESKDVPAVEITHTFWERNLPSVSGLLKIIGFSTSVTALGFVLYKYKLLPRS
# [4] = target: T2, Amine oxidase [flavin-containing] A; assay: Activity at recombinant human MAO-A expressed in baculovirus infected BT1 cells assessed as hydrogen peroxide generation rate preincubated for 30 mins by Amplex Red assay; settings: 0.5 h
# [5] = target: T1, Amine oxidase [flavin-containing] B; assay: Mixed type inhibition of recombinant human MAO-B expressed in baculovirus infected BT1 cells using benzylamine as substrate at 200 uM preincubated for 30 mins by Lineweaver-Burk plot analysis
# [6] = target: T1, Amine oxidase [flavin-containing] B; assay: Reversible inhibition of recombinant human MAO-B expressed in baculovirus infected BT1 cells using benzylamine as substrate at 200 uM preincubated for 30 mins by Lineweaver-Burk plot analysis
# [7] = target: T2, Amine oxidase [flavin-containing] A; assay: Reversible inhibition of recombinant human MAO-A expressed in baculovirus infected BT1 cells using p-tyramine as substrate by Lineweaver-Burk plot analysis
# [8] = target: T2, Amine oxidase [flavin-containing] A; assay: Mixed type inhibition of recombinant human MAO-A expressed in baculovirus infected BT1 cells using p-tyramine as substrate by Lineweaver-Burk plot analysis
# [9] = target: T1, Amine oxidase [flavin-containing] B; assay: Ratio of relative Vmax to Km for recombinant human MAO-B expressed in baculovirus infected BT1 cells assessed as hydrogen peroxide generation rate using benzylamine as substrate at 200 uM preincubated for 30 mins by Amplex Red assay
# [10] = target: T2, Amine oxidase [flavin-containing] A; assay: Activity at recombinant human MAO-A expressed in baculovirus infected BT1 cells assessed as hydrogen peroxide generation rate per min/mg using p-tyramine as substrate at 200 uM preincubated for 30 mins by Amplex Red assay relative to control
# [11] = target: T1, Amine oxidase [flavin-containing] B; assay: Activity at recombinant human MAO-B expressed in baculovirus infected BT1 cells assessed as hydrogen peroxide generation rate per min/mg using benzylamine as substrate at 200 uM preincubated for 30 mins by Amplex Red assay relative to control
# [12] = target: T2, Amine oxidase [flavin-containing] A; assay: Ratio of relative Vmax to Km for recombinant human MAO-A expressed in baculovirus infected BT1 cells assessed as hydrogen peroxide generation rate using p-tyramine as substrate at 200 uM preincubated for 30 mins by Amplex Red assay
# [13] = target: T2, Amine oxidase [flavin-containing] A; assay: Activity at recombinant human MAO-A expressed in baculovirus infected BT1 cells assessed as hydrogen peroxide generation rate preincubated for 30 mins by Amplex Red assay relative to control
# [14] = Cytotoxicity against human SH-SY5Y cells after 24 hrs by Annexin V-PE-based flow cytometry; assay type: cell-based; settings: for IC50: Homo sapiens, SH-SY5Y; for Activity: human, sh-sy5y
# [15] = target: T1, Amine oxidase [flavin-containing] B; assay: Ratio of residual Vmax to Km for recombinant human MAO-B expressed in baculovirus infected BT1 cells assessed as residual activity using benzylamine as substrate at 20 uM preincubated for 30 mins by Amplex Red assay
# [16] = target: T2, Amine oxidase [flavin-containing] A; assay: Ratio of residual Vmax to Km for recombinant human MAO-A expressed in baculovirus infected BT1 cells assessed as residual activity using benzylamine as substrate at 20 uM preincubated for 30 mins by Amplex Red assay
# [17] = target: T2, Amine oxidase [flavin-containing] A; assay: Inhibition of recombinant human MAO-A expressed in baculovirus infected BT1 cells assessed as residual activity using p-tyramine as substrate at 50 uM at 37 degC
# [18] = target: T2, Amine oxidase [flavin-containing] A; assay: Inhibition of recombinant human MAO-A expressed in baculovirus infected BT1 cells assessed as residual activity using p-tyramine as substrate at 50 uM at 25 degC
# [19] = target: T2, Amine oxidase [flavin-containing] A; assay: Competitive inhibition of MAOA in human SH-SY5Y cells using p-tyramine as substrate preincubated for 5 mins by Lineweaver-Burk plot analysis; assay type: cell-based
# [20] = target: T2, Amine oxidase [flavin-containing] A; assay: Inhibition of recombinant human MAO-A expressed in baculovirus infected BT1 cells assessed as residual activity using p-tyramine as substrate at 100 uM after 10 mins; settings: read-out: Activity
# [21] = target: T2, Amine oxidase [flavin-containing] A; assay: Inhibition of recombinant human MAO-A expressed in baculovirus infected BT1 cells assessed as residual activity using p-tyramine as substrate at 100 uM preincubated for 24 hrs measured after 10 mins; settings: read-out: Activity
# [22] = target: T2, Amine oxidase [flavin-containing] A; assay: Inhibition of recombinant human MAO-A expressed in baculovirus infected BT1 cells using p-tyramine as substrate at 20 to 240 uM by Lineweaver-Burk plot analysis
# [23] = target: T2, Amine oxidase [flavin-containing] A; assay: Inhibition of recombinant human MAO-A expressed in baculovirus infected BT1 cells using p-tyramine as substrate after 20 to 80 mins by Lineweaver-Burk plot analysis
# [24] = target: T1, Amine oxidase [flavin-containing] B; assay: biochemical; assay type: cell-based
# [25] = target: T2, Amine oxidase [flavin-containing] A; assay: Irreversible inhibition of recombinant human MAO-A expressed in baculovirus infected BT1 cells using p-tyramine as substrate by Lineweaver-Burk plot analysis
# [26] = target: T1, Amine oxidase [flavin-containing] B; assay: Activity at recombinant human MAO-B expressed in baculovirus infected BT1 cells assessed as hydrogen peroxide generation rate preincubated for 30 mins by Amplex Red assay
# [27] = target: T1, Amine oxidase [flavin-containing] B; assay: Activity at recombinant human MAO-B expressed in baculovirus infected BT1 cells assessed as hydrogen peroxide generation rate using benzylamine as substrate at 500 uM preincubated for 30 mins by Amplex Red assay relative to control
# [28] = target: T1, Amine oxidase [flavin-containing] B; assay: Ratio of relative Vmax to Km for recombinant human MAO-B expressed in baculovirus infected BT1 cells assessed as hydrogen peroxide generation rate using benzylamine as substrate at 500 uM preincubated for 30 mins by Amplex Red assay
# [29] = target: T1, Amine oxidase [flavin-containing] B; assay: Activity at recombinant human MAO-B expressed in baculovirus infected BT1 cells assessed as hydrogen peroxide generation rate using benzylamine as substrate at 500 uM preincubated for 30 mins by Amplex Red assay
# [30] = target: T2, Amine oxidase [flavin-containing] A; assay: Activity at recombinant human MAO-A expressed in baculovirus infected BT1 cells assessed as hydrogen peroxide generation rate using p-tyramine as substrate at 500 uM preincubated for 30 mins by Amplex Red assay relative to control
# [31] = target: T2, Amine oxidase [flavin-containing] A; assay: Ratio of relative Vmax to Km for recombinant human MAO-A expressed in baculovirus infected BT1 cells assessed as hydrogen peroxide generation rate using p-tyramine as substrate at 500 uM preincubated for 30 mins by Amplex Red assay
# [32] = target: T2, Amine oxidase [flavin-containing] A; assay: Activity at recombinant human MAO-A expressed in baculovirus infected BT1 cells assessed as hydrogen peroxide generation rate using p-tyramine as substrate at 500 uM preincubated for 30 mins by Amplex Red assay
structure (smiles),measurement,setting,value
NCCCOCCCCOCCCNCc1cccs1,fold change (FC),[1],0.19
same,fold change (FC),[2],0.21
same,fold change (FC),[3],0.06
same,Km,[4],> 1.2 mM
c1ccc(CNCCCCCCCCCCCCNCc2ccccc2)cc1,Ki,[5],129 µM
same,Ki,[6],1050 µM
same,Ki,[7],186 µM
same,Ki,[8],55 µM
same,fold change (FC),[9],0.37
same,fold change (FC),[10],0.52
same,fold change (FC),[11],0.62
same,fold change (FC),[12],0.29
CN(CCCCCCCCCCCCN)Cc1ccccc1,fold change (FC),[1],0.24
same,fold change (FC),[2],17.5
same,fold change (FC),[13],0.03
same,fold change (FC),[3],0.6
NCCCCCCCCCCCCNCc1ccccc1,IC50,[14],327 µM
same,Activity,[14],Dose-dependent effect
same,fold change (FC),[1],1
same,fold change (FC),[2],18.6
same,fold change (FC),[13],0.08
same,fold change (FC),[3],0.4
C=CCN=C=S [ALLYL ISOTHIOCYANATE],fold change (FC),[15],0.98
same,fold change (FC),[16],1
CN(CCCCCCCCCCCCN=C=S)Cc1ccccc1,IC50,[14],180 µM
same,Activity,[14],Dose-dependent effect
same,fold change (FC),[15],0.2
same,fold change (FC),[16],0.22
same,kinact,[17],0.00075 s⁻¹
same,kinact,[18],0.0002 s⁻¹
same,Ki,[19],4.9 µM
same,activity at 100 µM,[20],64%
same,activity at 100 µM,[21],100%
same,inhibition (INH),[22],Dose-dependent effect
same,inhibition (INH),[23],Dose-dependent effect
same,Ki,[24],9 µM
same,Ki,[25],5 µM
NCCCNCCCCNCCCNCc1cccnc1,fold change (FC),[9],0.72
same,fold change (FC),[10],0.52
same,fold change (FC),[11],0.93
same,Activity,[26],Not Active
same,fold change (FC),[12],0.72
same,Activity,[4],Not Active
NCCCCCCCCNCCCNCc1cccs1,fold change (FC),[9],0.75
same,fold change (FC),[27],< 0.01
same,fold change (FC),[28],< 0.01
same,Km,[29],< 10 nM
same,fold change (FC),[30],< 0.01
same,fold change (FC),[31],< 0.01
same,Km,[32],< 10 nM
same,fold change (FC),[10],0.96
same,fold change (FC),[11],0.71
same,fold change (FC),[12],0.69
NCCCNCCCCNCCCNCc1cccs1,Ki,[5],23 µM
same,Ki,[6],414 µM
same,Ki,[7],997 µM
same,Ki,[8],226 µM
same,fold change (FC),[9],0.05
same,fold change (FC),[10],0.52
same,fold change (FC),[11],0.63
same,Activity,[26],Not Active
same,fold change (FC),[12],0.57
same,Activity,[4],Not Active
C[S+]([O-])CCCCN=C=S (stereo not drawn) [SULFORAPHANE],IC50,[14],20 µM
same,fold change (FC),[15],1.01
same,fold change (FC),[16],0.78
NCCCNCCCCNCCCNCc1ccc2ccccc2c1,fold change (FC),[9],0.91
same,fold change (FC),[10],0.52
same,fold change (FC),[11],0.81
same,Activity,[26],Not Active
same,fold change (FC),[12],0.62
same,Activity,[4],Not Active
NCCCNCCCCNCCCNCc1ccccc1,Ki,[5],291 µM
same,Ki,[6],785 µM
same,Ki,[7],188 µM
same,Ki,[8],170 µM
same,fold change (FC),[9],0.66
same,fold change (FC),[10],0.48
same,fold change (FC),[11],0.97
same,fold change (FC),[12],0.38
NCCCCCCCCCCCCNCc1cccs1,fold change (FC),[1],0.53
same,fold change (FC),[2],12
same,fold change (FC),[13],0.1
same,fold change (FC),[3],0.29
NCCCNCCCCNCCCN [SPERMINE],fold change (FC),[9],0.76
same,fold change (FC),[10],0.77
same,fold change (FC),[11],0.98
same,fold change (FC),[12],0.86
